Consider one compound from US20150359884A1, “MULTI-PHOTON ISOMERISATION OF COMBRETASTATINS AND THEIR USE IN THERAPY” (priority 2011, published 2015).

Structures are written as SMILES.

Data set [1] can be described thus: Fluorescence lifetimes in solvents, two-photon excitation with TCSPC. The data set is classed as physicochemical. To be noted: for Fluorescence lifetime τ: 20° C., two-photon excitation 620-630 nm. As for the experimental part:
Fluorescence lifetimes were determined using 2PE at 630 nm with the microscope TCSPC setup (overall time response of 25 ps fwhm) and produced the results shown in Table 1. […] Characterisation of the spectroscopic properties of these latter two compounds remains to be investigated further. […] In the very viscous environment provided by glycerol the lifetime increases further to 1180 ps. In the range of alkanols studied the lifetime is closely correlated with solvent viscosity as shown in the inset to FIG. 3. […] However it is clear that the measured lifetime has the potential to report on cellular environments in FLIM studies. For E-CA4F similar trends are observed, but the overall differences in both lifetimes and quantum yields over the range of solvents are rather less than for E-CA4. The fluorescence lifetimes of E-CA4F are confined to a narrower range having values ranging from 440 ps in methanol through 740 ps in hexane to 1070 ps in glycerol. The more pronounced solvent dependence for E-CA4 no doubt reflects the more polar nature of the molecule compared with E-CA4F. The relative polarities may be judged from the partition coefficients (P) calculated according to the method of Brown et al..

For data set [2], the system named is Chinese hamster ovary (CHO) cells. The data set is described as follows: Fluorescence lifetime imaging (FLIM) of uptake and intracellular concentration in CHO cells. As for the experimental part:
Both HeLa and Chinese hamster ovary (CHO) cells were obtained from the European Collection of Cell Cultures. HeLa cells were cultured in MEM medium (Gibco) containing 10% foetal calf serum, penicillin (100 units/mL), streptomycin (100 μg/mL) and glutamine (2 mM). CHO cells were cultured in DMEM (Gibco) with the same additions as for the HeLa cells. For microscopy the adherent cell cultures were grown in 35 mm diameter glass-bottom culture dishes with optical quality glass (MatTek Corporation) and incubated at 37° C. in a humidified atmosphere containing 5% CO2. Human umbilical vein endothelial cells (HUVECs) were obtained from TCS Cellworks. […]
The fluorescence lifetime imaging system with multiphoton excitation employed lasers for multiphoton excitation consisting of a Ti:Sapphire laser, tuneable between 700 and 1000 nm and providing ca 180 fs pulses at 76 MHz, and an optical parametric oscillator (OPO) pumped by a second Ti:Sapphire laser source. […] Using the various microscope ports it was possible to record the fluorescence in a number of ways. The fluorescence signal at one port was relayed to a spectrometer (Acton 275) and CCD setup (Andor iDUS) so that emission spectra and intensities could be recorded. […] In FLIM mode the fluorescence was isolated by a suitable narrowband interference filter (400IU25 together with BG3 (Comar)). […]

The subject of data set [3] is cells. To be noted: typical toxicity assays; cited from earlier work.

With `COc1ccc(/C=C/c2cc(OC)c(OC)c(OC)c2)cc1O` [E-CA4, (E)-1-(3′,4′,5′-Trimethoxyphenyl)-2-(4″-methoxy-3″-hydroxy-phenyl)ethene], the “Fluorescence lifetime τ” value in data set [1] (DCM, ne = non-exponential) is 0.50 ns; in data set [1] (DMSO), 0.49 ns; in data set [1] (EtOH, ne = non-exponential), 0.28 ns; in data set [1] (Ethylene glycol, ne = non-exponential), 0.58 ns; in data set [1] (Glycerol, ne = non-exponential) it was 1.18 ns; in data set [1] (Hexane) it was 0.86 ns. For the same compound, the “Fluorescence lifetime τ” value in data set [1] (MeCN, ne = non-exponential) is 0.29 ns; in data set [1] (MeOH, ne = non-exponential), 0.23 ns. For the same compound, the Fluorescence lifetime result is “around 220 ps” in data set [1] (acetonitrile); 500 ps in data set [1] (as shown in FIG. 10, compared with TRIR in dichloromethane); 1180 ps in data set [1] (glycerol); 855 ps in data set [1] (hexane). The “Concentrating of the drug, factor relative to the surrounding medium” value in data set [2] (10 μM in the medium) is listed as 25-75 times. In addition, in data set [2] (10 μmol dm^−3, 2PE 628 nm), the Intracellular distribution entry is listed as “located mainly within the cytoplasmic region of the cell”. Moreover, in data set [3], the “Concentrations required to kill cells” value was “micromolar”.
